Results on 7 compounds are retold here after patent US20250332173A1, “COMPOUNDS AND METHODS FOR MODULATING NUCLEIC ACID SPLICING” (REMIX THERAPEUTICS INC., priority 2021, published 2025).

The structures appear in SMILES notation. Read-outs that look alike come from different tables or passages of the source.

The test system of assay [1] is Target C. Put plainly: RT-qPCR splicing assay panel, Target C canonical junction (CJ) mRNA. It is filed as cell-based, human. As to conditions: Homo sapiens; canonical junction qPCR panel, Table 5; read-out: Target C (decrease in CJ mRNA levels, IC50). In outline: (§1)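 Canonical exon-exon junction transcript levels measured by one-step RT-qPCR of cell lysates, normalized to a housekeeping gene (GAPDH, GUSB or PPIA). Cells used were A673 or K562, exposed for 24 h to compound in 11-point, 3-fold series from 10 uM, with final DMSO at or below 0.25%.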
(In general: Quantitative PCR measures a nucleic acid by following its amplification.)

The test system of assay [2] is K562 (human chronic myelogenous leukemia) cells. Put plainly: Cell Titer Glo 2.0 cell viability assay. It is filed as cell-based. To be noted: Homo sapiens, K562, 72 h, K562 cells, 72 hours, Cell Titer Glo 2.0; read-out: K562 GI50.
For assay [3], the system named is MYB mRNA. The experiment in a line: RT-qPCR splicing assay, MYB canonical junction (CJ) and alternative junction (AJ) mRNA. It is filed as cell-based, human. As to conditions: Homo sapiens; for AC50: increase in MYB alternative junction (AJ) mRNA, read-out: MYB AJ AC50. Summed up: (§2)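 24 h treatment, 37 °C/5% CO2; A673 or K562; 11-pt 3-fold series, top 10 uM final; DMSO ≤0.25%. Cell lysis with DNase I, then 1-step RT-qPCR. Housekeeping normalization: PPIA (A673), GAPDH or GUSB (K562).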

For assay [4], the system named is HTT mRNA. Put plainly: RT-qPCR splicing assay, HTT canonical junction (CJ) and alternative junction (AJ) mRNA. As to conditions: Homo sapiens; for AC50: increase in HTT alternative junction (AJ) mRNA, read-out: HTT AJ AC50. It is filed as cell-based, human. Summed up: as §2
Assay [5] concerns SMN2 mRNA. Put plainly: RT-qPCR splicing assay, SMN2 canonical junction (CJ) mRNA. It is filed as cell-based, human. As to conditions: Homo sapiens; canonical junction qPCR panel, Table 5; read-out: SMN2 (decrease in CJ mRNA levels, IC50). In outline:
as §1

Setting [6] is: canonical junction qPCR panel, Table 5, read-out: MYB (decrease in CJ mRNA levels, IC50).
Setting [7] is: decrease in MYB canonical junction (CJ) mRNA, RT-qPCR, read-out: MYB CJ IC50.
Where [8] appears, read: decrease in HTT canonical junction (CJ) mRNA, RT-qPCR, read-out: HTT CJ IC50.
Setting [9] is: canonical junction qPCR panel, Table 5, read-out: HTT (decrease in CJ mRNA levels, IC50).

`Cc1cn2cc(-c3nc(C)c4c(=O)n(C5C[C@H](C)N[C@@H](C)C5)ccc4n3)cc(F)c2n1` (stereo partly drawn) [Compound 1523]: the IC50 in assay [1] was 1000 to 10000 nM; in assay [3] (setting [6]) it was 100 to 1000 nM; in assay [3] (setting [7]), less than 100 nM; in assay [4] (setting [8]) it was 1000 to 10000 nM; in assay [4] (setting [9]) it was 100 to 1000 nM; in assay [5] it was less than 100 nM. Moreover, in assay [2], the GI50 fell in the range of 100 to 1000 nM. Moreover, the AC50 in assay [3] (RT-qPCR) and in assay [4] (RT-qPCR) was 100 to 1000 nM each time.
In the case of `Cc1cn2cc(-c3cc(C)c4c(=O)n(C5CCNCC5)ccc4n3)cc(F)c2n1` [Compound 1524, 2-(8-fluoro-2-methyl-imidazo[1,2-a]pyridin-6-yl)-4-methyl-6-(4-piperidyl)-1,6-naphthyridin-5-one], the IC50 in assay [1] is 100 to 1000 nM; in assay [3] (setting [6]), 100 to 1000 nM; in assay [3] (setting [7]) it was less than 100 nM; in assay [4] (setting [8]), 100 to 1000 nM; in assay [4] (setting [9]), 100 to 1000 nM; in assay [5], less than 100 nM. Further, the GI50 in assay [2] lay in the range of 100 to 1000 nM. For the same compound, the AC50 in assay [3] (RT-qPCR) and in assay [4] (RT-qPCR) was 100 to 1000 nM each time.
Take `CNC12CCC(n3ccc4nc(-c5cc6cn(C)nc6cc5O)ccc4c3=O)(CC1)C2` [Compound 1525]: the IC50 in assay [1] was greater than 10000 nM; in assay [3] (setting [6]), less than 100 nM; in assay [3] (setting [7]) it was less than 100 nM; in assay [4] (setting [8]), 1000 to 10000 nM; in assay [4] (setting [9]), 1000 to 10000 nM; in assay [5] it was less than 100 nM. Moreover, the GI50 in assay [2] was less than 100 nM. The results for the AC50 in assay [3] (RT-qPCR) and in assay [4] (RT-qPCR) were less than 100 nM and 1000 to 10000 nM, respectively.
As to `Cc1c(O)c(-c2ccc3c(=O)n(C45CCC(NC(C)C)(CC4)C5)ccc3n2)cc2cn(C)nc12` [Compound 1526], the IC50 in assay [1] was greater than 10000 nM; in assay [3] (setting [6]), less than 100 nM; in assay [3] (setting [7]), less than 100 nM; in assay [4] (setting [8]), greater than 10000 nM; in assay [4] (setting [9]) it was 1000 to 10000 nM; in assay [5] it was less than 100 nM. Also, the GI50 in assay [2] was in the range of 100 to 1000 nM. The half-maximal activity concentration (AC50) in assay [3] (RT-qPCR) is less than 100 nM; in assay [4] (RT-qPCR), 1000 to 10000 nM.
For `Cc1cn2nc(-c3ccc4c(=O)n([C@H]5CCNC6(CCC6)C5)ncc4n3)cc(C)c2n1` [Compound 1544, 6-[(8S)-5-azaspiro[3.5]nonan-8-yl]-2-(2,8-dimethylimidazo[1,2-b]pyridazin-6-yl)pyrido[2,3-d]pyridazin-5-one], the half-inhibitory concentration (IC50) in assay [1], in assay [3] (setting [6]), in assay [3] (setting [7]), in assay [4] (setting [8]), in assay [4] (setting [9]) and in assay [5] was 100 to 1000 nM in each case. Moreover, the GI50 in assay [2] was 100 to 1000 nM. Also, the AC50 in assay [3] (RT-qPCR) and in assay [4] (RT-qPCR) was 100 to 1000 nM each time.
Turning to `Cc1cn2nc(-c3ccc4c(=O)n(C5CCNC6(CC6)C5)ncc4n3)cc2c(C)n1` (stereo not drawn) [Compound 1547, 6-(4-azaspiro[2.5]octan-7-yl)-2-(4,6-dimethylpyrazolo[1,5-a]pyrazin-2-yl)pyrido[2,3-d]pyridazin-5-one], the IC50 in assay [1] was 1000 to 10000 nM; in assay [3] (setting [6]) it was 1000 to 10000 nM; in assay [3] (setting [7]), 1000 to 10000 nM; in assay [4] (setting [8]), 1000 to 10000 nM; in assay [4] (setting [9]), 100 to 1000 nM; in assay [5] it was 100 to 1000 nM. Further, the GI50 in assay [2] lay within 1000 to 10000 nM. The figures for the AC50 in assay [3] (RT-qPCR) and in assay [4] (RT-qPCR) were 1000 to 10000 nM and 100 to 1000 nM, respectively.
For the compound `Cc1cn2nc(-c3ccc4c(=O)n([C@@H]5CCNC6(CC6)C5)ncc4n3)cc2c(C)n1` [Compound 1548, 6-[(7R)-4-azaspiro[2.5]octan-7-yl]-2-(4,6-dimethylpyrazolo[1,5-a]pyrazin-2-yl)pyrido[2,3-d]pyridazin-5-one], the IC50 in assay [1], in assay [3] (setting [6]), in assay [3] (setting [7]), in assay [4] (setting [8]), in assay [4] (setting [9]) and in assay [5] was 100 to 1000 nM throughout. In addition, the GI50 in assay [2] was 100 to 1000 nM. The concentration at half-maximal activity (AC50) in assay [3] (RT-qPCR) and in assay [4] (RT-qPCR) was 100 to 1000 nM each time.

By IC50 is commonly meant the concentration at which inhibition is half-maximal. Usually GI50 stands for the concentration giving 50% growth inhibition. The term AC50 denotes the concentration at which the activity in the assay is half-maximal.
